According to ChEMBL document CHEMBL3608223, “Quinolizidine alkaloids reduced mortality in EV71-infected mice by compensating for the levels of T cells” (2015):
Active and inactive are the calls of the source. The rule behind the calls is not given here.

Columns and labels:
Enterovirus A71 [1] = experiment: Antiviral activity against human enterovirus 71 infected in ICR mouse assessed as reduction in viral infection-induced phenotypic changes by measuring paralysis incidences at 15 mg/kg, ip qd for 8 days dosed 2 hrs post infection and measured at 8 days post infection; format: functional, organism-based
Mus musculus [2] = experiment: Immunoregulatory activity in […] mouse assessed as increase in CD3+ T cells at 60 mg/kg, ip once daily for 8 days by flow cytometry; format: functional, organism-based; conditions: T-cell
Mus musculus [3] = experiment: Immunoregulatory activity in […] mouse infected with human enterovirus 71 assessed as increase in CD8+ T cells at 15 mg/kg, ip once daily for 8 days by flow cytometry and measured at 8 days post infection; format: functional, organism-based; conditions: T-cell
Enterovirus A71 [4] = experiment: Antiviral activity against human enterovirus 71 infected in ICR mouse assessed as reduction in viral infection related clinical scores at 15 mg/kg, ip qd for 8 days dosed 2 hrs post infection and measured at 8 days post infection; format: functional, organism-based
Mus musculus [5] = experiment: Immunoregulatory activity in […] mouse assessed as reduction in NK cells at 60 mg/kg, ip once daily for 8 days by flow cytometry; format: functional, organism-based
Mus musculus [6] = experiment: Immunoregulatory activity in […] mouse assessed as reduction in B cells at 60 mg/kg, ip once daily for 8 days by flow cytometry; format: functional, organism-based
Mus musculus [7] = experiment: Immunoregulatory activity in […] mouse assessed as reduction in DC cells at 60 mg/kg, ip once daily for 8 days by flow cytometry; format: functional, organism-based
Mus musculus [8] = experiment: Immunoregulatory activity in […] mouse assessed as increase in CD4+ T cells at 60 mg/kg, ip once daily for 8 days by flow cytometry; format: functional, organism-based; conditions: T-cell
Enterovirus A71 [9] = experiment: Antiviral activity against human enterovirus 71 infected in ICR mouse assessed as reduction in viral replications in muscle at 15 mg/kg, ip qd for 8 days dosed 2 hrs post infection and measured at 8 days post infection by qRT-PCR method; format: functional, organism-based
Mus musculus [10] = experiment: Immunoregulatory activity in […] mouse infected with human enterovirus 71 assessed as increase in CD4+ T cells at 15 mg/kg, ip once daily for 8 days by flow cytometry and measured at 8 days post infection; format: functional, organism-based; conditions: T-cell
Enterovirus A71 [11] = experiment: Antiviral activity against human enterovirus 71 infected in ICR mouse assessed as reduction in viral infection realted clinical scores at 15 mg/kg, ip qd for 8 days dosed 2 hrs post infection; format: functional, organism-based
Mus musculus [12] = experiment: Immunoregulatory activity in […] mouse infected with human enterovirus 71 assessed as increase in CD3+ T cells at 15 mg/kg, ip once daily for 8 days by flow cytometry and measured at 8 days post infection; format: functional, organism-based; conditions: T-cell
Enterovirus A71 [13] = experiment: Antiviral activity against human enterovirus 71 infected in ICR mouse assessed as reduction in mouse body weight loss at 15 mg/kg, ip qd for 8 days dosed 2 hrs post infection; format: functional, organism-based
Enterovirus A71 [14] = experiment: Antiviral activity against human enterovirus 71 infected in ICR mouse assessed as increase in survival rate at 15 mg/kg, ip qd for 8 days dosed 2 hrs post infection and measured at 14 days post infection; format: functional
Enterovirus A71 [15] = experiment: Antiviral activity against human enterovirus 71 infected in ICR mouse assessed as reduction in viral infection-induced phenotypic changes by measuring ruffled hair incidences at 15 mg/kg, ip qd for 8 days dosed 2 hrs post infection and measured at 8 days post infection; format: functional, organism-based
Enterovirus A71 [16] = experiment: Antiviral activity against human enterovirus 71 infected in ICR mouse assessed as increase in survival rate at 30 mg/kg, ip qd for 8 days dosed 2 hrs post infection and measured at 14 days post infection; format: functional
Enterovirus A71 [17] = experiment: Antiviral activity against human enterovirus 71 infected in ICR mouse assessed as increase in survival rate at 7.5 mg/kg, ip qd for 8 days dosed 2 hrs post infection and measured at 14 days post infection; format: functional
Enterovirus A71 [18] = experiment: Antiviral activity against human enterovirus 71 infected in ICR mouse assessed as mouse recovery from infection in 15 mg/kg, ip qd for 8 days dosed 2 hrs post infection and measured at 14 days post infection; format: functional, organism-based
Enterovirus A71 [19] = experiment: Antiviral activity against human enterovirus 71 infected in ICR mouse assessed as increase in survival rate at 15 mg/kg, ip qd for 8 days dosed 2 hrs post infection and measured at 14 days post infection relative to control; format: functional, organism-based
Mus musculus [20] = experiment: Immunoregulatory activity in […] mouse assessed as increase in CD8+ T cells at 60 mg/kg, ip once daily for 8 days by flow cytometry; format: functional, organism-based; conditions: T-cell
Enterovirus A71 [21] = experiment: Antiviral activity against human enterovirus 71 infected in ICR mouse assessed as increase in survival rate at 50 mg/kg, ip qd for 8 days dosed 2 hrs post infection and measured at 14 days post infection; format: functional

| Compound | Activity (Mus musculus [2]) | Activity (Mus musculus [5]) | Activity (Mus musculus [6]) | Activity (Mus musculus [7]) | Activity (Mus musculus [8]) | Activity (Enterovirus A71 [19]) | Activity (Mus musculus [20]) | other results |
| --- | --- | --- | --- | --- | --- | --- | --- | --- |
| O=C1C=CC[C@@H]2[C@H]3CCC[N+]4([O-])CCC[C@@H](CN12)[C@@H]34 (stereo partly specified) [OXYSOPHOCARPINE] | Active | Active | Active | Active | Active | Active | Active | Activity (Enterovirus A71 [1]): Active; Activity (Mus musculus [3]): Active; Activity (Enterovirus A71 [4]): Active; Activity (Enterovirus A71 [9]): Active; Activity (Mus musculus [10]): Active; Activity (Enterovirus A71 [11]): Active; Activity (Mus musculus [12]): Active; Activity (Enterovirus A71 [13]): Active; Activity (Enterovirus A71 [14]): 30%; Activity (Enterovirus A71 [15]): Active; Activity (Enterovirus A71 [16]): 25%; Activity (Enterovirus A71 [17]): 25%; Activity (Enterovirus A71 [18]): Active |
| O=C1CCC[C@@H]2[C@H]3CCCN4CCC[C@H](CN12)[C@@H]34 | Active | Active | Active | Active | Active | Active | Active |  |
| O=C1CCC[C@@H]2[C@H]3CCCN4CCC[C@@H](CN12)[C@@H]34 | Active | Active | Active | Active | Active | Active | Active |  |
| O=C1CCC[C@@H]2[C@H]3CCC[N+]4([O-])CCC[C@@H](CN12)[C@@H]34 (stereo partly specified) | Active | Active | Active | Active | Active | Active | Active |  |
| O=C1C=CC[C@@H]2[C@H]3CCCN4CCC[C@@H](CN12)[C@@H]34 | Active | Active | Active | Active | Active | Active | Active |  |
| O=c1cccc2n1C[C@@H]1CCCN3CCC[C@H]2[C@H]13 | Active | Active | Active | Active | Active | Active | Active |  |
| NC(=O)c1ncn([C@@H]2O[C@H](CO)[C@@H](O)[C@H]2O)n1 [RIBAVIRIN] |  |  |  |  |  |  |  | Activity (Enterovirus A71 [21]): 15% |
